According to US20230103631A1, “PEPTIDES AS SELECTIVE GIP RECEPTOR AGONISTS” (Sanofi, priority 2020, published 2023):
*1 amine or outer side, *2 acyl side, *3 side chain or, on linkers, in order; H or OH if unused. Where a SMILES comes first, the peptide text is derived from it. Side-chain parts run from the residue outwards. [ ]: non-standard residue; d: D form. The star is where a group is joined. C18 diacid = O=C(O)CCCCCCCCCCCCCCCCC(=O)*; γGlu = O=C(O)[C@H](CCC(=O)[*:2])N[*:1]; NMeY = CN[C@@H](Cc1ccc(O)cc1)C(=O)O; AEEA = NCCOCCOCC(=O)O; Aib = CC(C)(N)C(=O)O; Sar = CNCC(=O)O

Tests used:
[1] = ThT assay for the assessment of physical stability; type: physicochemical; details: ThT buffer system A: 100 mM phosphate buffer pH 7.4; 3 mg/ml, 37° C.
From the text: Low physical stability of a peptide solution may lead to amyloid fibril formation, which is observed as well-ordered, thread-like macromolecular structures in the sample, which eventually may lead to gel formation. Thioflavin T (ThT) is widely used to visualize and quantify the presence of misfolded protein aggregates [Biancalana et al., Biochim. Biophys. Acta 2010, 1804(7), 1405]. […] Enzymol. 1999, 309, 274]. The time course for fibril formation often follows the characteristic shape of a sigmoidal curve and can be separated into three regions: a lag phase, a fast growth phase, and a plateau phase.
The typical fibril formation process starts with the lag phase in which the amount of partially folded peptide turned into fibrils is not significant enough to be detected. The lag-time corresponds to the time the critical mass of the nucleus is built. Afterwards, a drastic elongation phase follows, and fibril concentration increases rapidly.
Investigations were carried out to determine fibrillation tendencies under stress conditions by shaking at 37° C. within Fluoroskan Ascent FL or Fluoroskan Ascent.
For the tests in Fluoroskan Ascent (FL), 200 μl sample were placed into a 96-well mictrotiter plate PS, flat bottom, Greiner Fluotrac No. 655076. Plates were sealed with Scotch Tape (Qiagen). Samples were stressed by continuous cycles of 10 sec shaking at 960 rpm and 50 sec rest period at 37° C. The kinetic was monitored by measuring fluorescence intensity every 20 min.
Peptides were diluted in a buffer system to a final concentration of 3 mg/ml. 20 μl of a 10.1 mM ThT solution in H2O were added to 2 ml of peptide solution to receive a final concentration of 100 μM ThT. For each sample eight replicates were tested.
ThT buffer system A) 100 mM phosphate buffer pH 7.4
ThT buffer system B) 100 mM phosphate buffer pH 7.4, 2.7 mg/ml m-cresol
Lag time in hours (h) in Thioflavin T (ThT) assay of peptide samples was determined in ThT buffer system A as described in Methods.

[2] = Dynamic light scattering (DLS) for the assessment of physical stability; type: physicochemical; details: DLS buffer system A
From the text: A monochromatic and coherent light beam (laser) is used to illuminate the liquid sample. Dynamic Light Scattering (DLS) measures light scattered from particles (1 nm≤radius≤1 μm) that undergo Brownian motion. This motion is induced by collisions between the particles and solvent molecules, that themselves are moving due to their thermal energy. The diffusional motion of the particles results in temporal fluctuations of the scattered light (R. Pecora, Dynamic Light Scattering: Applications of Photon Correlation Spectroscopy, Plenum Press, 1985).
The scattered light intensity fluctuations are recorded and transformed into an autocorrelation function. By fitting the autocorrelation curve to an exponential function, the diffusion coefficient D of the particles in solution can be derived. The diffusion coefficient is then used to calculate the hydrodynamic radius Rh (or apparent Stokes radius) through the Stokes-Einstein equation assuming spherical particles. This calculation is defined in ISO 13321 and ISO 22412 (International Standard ISO13321 Methods for Determination of Particle Size Distribution Part 8: Photon Correlation Spectroscopy, International Organisation for Standardisation (ISO) 1996; International Standard ISO22412 Particle Size Analysis—Dynamic Light Scattering, International Organisation for Standardisation, 2008).
In case of polydisperse samples, the autocorrelation function is the sum of the exponential decays corresponding to each of the species. The temporal fluctuations of the scattered light can then be used to determine the size distribution profile of the particle fraction or family. The first order result is an intensity distribution of scattered light as a function of the particle size. The intensity distribution is naturally weighted according to the scattering intensity of each particle fraction or family. For biological materials or polymers, the particle scattering intensity is proportional to the square of the molecular weight. Thus, small amount of aggregates/agglomerates or presence or a larger particle species can dominate the intensity distribution. However, this distribution can be used as a sensitive detector for the presence of large material in the sample.
The DLS technique produces distributions with inherent peak broadening. The polydispersity index % Pd is a measure of the width of the particle size distribution and is calculated by standard methods described in ISO13321 and ISO22412 [International Standard ISO13321 Methods for Determination of Particle Size Distribution Part 8: Photon Correlation Spectroscopy, International Organisation for Standardisation (ISO) 1996; International Standard ISO22412 Particle Size Analysis—Dynamic Light Scattering, International Organisation for Standardisation (ISO) 2008].
Solutions from solid samples were prepared in buffer systems (see below) with a target concentration of 300 μM compound based on the previously determined % purity.
DLS buffer system A) 20 mM phosphate buffer pH 7.4
DLS buffer system B) 8 mM phosphate buffer pH 7.4, 14 mg/ml propylene glycol, 5.5 mg/ml phenol
DLS buffer system C) 100 mM phosphate buffer pH 7.4, 2.7 mg/ml m-cresol Solutions were filtered through 0.22 μm pore size and filled into sterilized glass containers under laminar flow conditions. For every peptide solution, the apparent hydrodynamic radius (Rh), the corresponding Scattering Intensity (I), and the Mass Contribution (M) were determined as an average over 3-6 replicates from the intensity distribution of the scattered light averaging only high-quality measurements. Relative standard deviations (RSD) for these parameters were calculated from the same number of replicates. […]

| SMILES | Increase in FI [1] | Lag time before increase [1] [h] | I and SD (Scattering Intensity) ([2]; 0 weeks) [%] | M and SD (Mass Contribution) ([2]; 0 weeks) [%] | apparent Rh and SD ([2]; 0 weeks) [nm] | I and SD (Scattering Intensity) ([2]; 4 weeks storage at 40° C.) [%] | M and SD (Mass Contribution) ([2]; 4 weeks storage at 40° C.) [%] | apparent Rh and SD ([2]; 4 weeks storage at 40° C.) [nm] |
| --- | --- | --- | --- | --- | --- | --- | --- | --- |
| CC[C@H](C)[C@H](NC(=O)[C@H](CCCNC(=N)N)NC(=O)[C@H](CC(=O)O)NC(=O)[C@H](CCCCNC(=O)COCCOCCNC(=O)COCCOCCNC(=O)CC[C@H](NC(=O)CCCCCCCCCCCCCCCCC(=O)O)C(=O)O)NC(=O)C(C)(C)NC(=O)[C@@H](NC(=O)[C@H](CO)NC(=O)[C@H](CC(C)C)NC(=O)[C@H](CC(=O)O)NC(=O)[C@H](CO)NC(=O)[C@@H](NC(=O)[C@H](Cc1ccccc1)NC(=O)[C@@H](NC(=O)CNC(=O)[C@H](CCC(=O)O)NC(=O)C(C)(C)NC(=O)[C@H](Cc1ccc(O)cc1)NC)[C@@H](C)O)[C@@H](C)CC)[C@@H](C)CC)C(=O)N[C@@H](Cc1c[nH]cn1)C(=O)N[C@@H](CCC(N)=O)C(=O)NC(C)(C)C(=O)N[C@@H](CCC(=O)O)C(=O)N[C@@H](Cc1ccccc1)C(=O)N[C@H](C(=O)N[C@@H](CCC(=O)O)C(=O)N[C@@H](Cc1c[nH]c2ccccc12)C(=O)N[C@@H](CC(C)C)C(=O)N[C@@H](CC(C)C)C(=O)N[C@@H](C)C(=O)N[C@@H](CCC(N)=O)C(=O)NCC(=O)N1CCC[C@H]1C(=O)N[C@@H](CO)C(=O)N[C@@H](CO)C(=O)NCC(=O)N[C@@H](C)C(=O)N1CCC[C@H]1C(=O)N1CCC[C@H]1C(=O)N1CCC[C@H]1C(=O)N[C@@H](CO)C(N)=O)[C@@H](C)CC [SEQ ID NO: 8, MeHN-Y-Aib-E-G-T-F-I-S-D-I-S-I-Aib-K[{AEEA}2-gGlu-C180H]-D-R-I-H-Q-Aib-E-F--E-W-I-L-A-Q-G-P-S-S-G-A-P-P-P-S-NH2] (H-[NMeY][Aib]EGTFISDLSI[Aib]K([AEEA-AEEA-γGlu-C18 diacid])DRIHQ[Aib]EFIEWLLAQGPSSGAPPPS-NH2) | no | >45 | 73 ± 3 | 100 ± 0 | 2.06 ± 0.03 | 78 ± 9 | 100 ± 0 | 2.00 ± 0.07 |
| CC[C@H](C)[C@H](NC(=O)[C@H](CCCNC(=N)N)NC(=O)[C@H](CC(=O)O)NC(=O)[C@H](CCCCNC(=O)CNC(=O)CNC(=O)CNC(=O)CC[C@H](NC(=O)CCCCCCCCCCCCCCCCC(=O)O)C(=O)O)NC(=O)C(C)(C)NC(=O)[C@@H](NC(=O)[C@H](CO)NC(=O)[C@H](CC(C)C)NC(=O)[C@H](CC(=O)O)NC(=O)[C@H](CO)NC(=O)[C@@H](NC(=O)[C@H](Cc1ccccc1)NC(=O)[C@@H](NC(=O)CNC(=O)[C@H](CCC(=O)O)NC(=O)C(C)(C)NC(=O)[C@@H](N)Cc1ccc(O)cc1)[C@@H](C)O)[C@@H](C)CC)[C@@H](C)CC)C(=O)N[C@@H](Cc1c[nH]cn1)C(=O)N[C@@H](CCC(N)=O)C(=O)NC(C)(C)C(=O)N[C@@H](CCC(=O)O)C(=O)N[C@@H](Cc1ccccc1)C(=O)N[C@H](C(=O)N[C@@H](CCC(=O)O)C(=O)N[C@@H](Cc1c[nH]c2ccccc12)C(=O)N[C@@H](CC(C)C)C(=O)N[C@@H](CC(C)C)C(=O)N[C@@H](C)C(=O)N[C@@H](CCC(N)=O)C(=O)NCC(=O)N1CCC[C@H]1C(=O)N[C@@H](CO)C(=O)N[C@@H](CO)C(=O)NCC(=O)N[C@@H](C)C(=O)N1CCC[C@H]1C(=O)N1CCC[C@H]1C(=O)N1CCC[C@H]1C(=O)N[C@@H](CO)C(N)=O)[C@@H](C)CC [SEQ ID NO: 5, H2N-Y-Aib-E-G-T-F-I-S-D-I-S-I-Aib-K[{Gly}3-gGlu-C18OH]-D-R-I-H-Q-Aib-E-F-I-E-W-I-L-A-Q-G-P-S-S-G-A-P-P-P-S-NH2] (H-Y[Aib]EGTFISDLSI[Aib]K([Gly-Gly-Gly-γGlu-C18 diacid])DRIHQ[Aib]EFIEWLLAQGPSSGAPPPS-NH2) | no | >45 | 76 ± 2 | 100 ± 0 | 2.05 ± 0.04 | 89 ± 3 | 100 ± 0 | 1.99 ± 0.03 |
| CC[C@H](C)[C@H](NC(=O)[C@H](CCCNC(=N)N)NC(=O)[C@H](CC(=O)O)NC(=O)[C@H](CCCCNC(=O)CN(C)C(=O)CN(C)C(=O)CN(C)C(=O)CC[C@H](NC(=O)CCCCCCCCCCCCCCCCC(=O)O)C(=O)O)NC(=O)C(C)(C)NC(=O)[C@@H](NC(=O)[C@H](CO)NC(=O)[C@H](CC(C)C)NC(=O)[C@H](CC(=O)O)NC(=O)[C@H](CO)NC(=O)[C@@H](NC(=O)[C@H](Cc1ccccc1)NC(=O)[C@@H](NC(=O)CNC(=O)[C@H](CCC(=O)O)NC(=O)C(C)(C)NC(=O)[C@@H](N)Cc1ccc(O)cc1)[C@@H](C)O)[C@@H](C)CC)[C@@H](C)CC)C(=O)N[C@@H](Cc1c[nH]cn1)C(=O)N[C@@H](CCC(N)=O)C(=O)NC(C)(C)C(=O)N[C@@H](CCC(=O)O)C(=O)N[C@@H](Cc1ccccc1)C(=O)N[C@H](C(=O)N[C@@H](CCC(=O)O)C(=O)N[C@@H](Cc1c[nH]c2ccccc12)C(=O)N[C@@H](CC(C)C)C(=O)N[C@@H](CC(C)C)C(=O)N[C@@H](C)C(=O)N[C@@H](CCC(N)=O)C(=O)NCC(=O)N1CCC[C@H]1C(=O)N[C@@H](CO)C(=O)N[C@@H](CO)C(=O)NCC(=O)N[C@@H](C)C(=O)N1CCC[C@H]1C(=O)N1CCC[C@H]1C(=O)N1CCC[C@H]1C(=O)N[C@@H](CO)C(N)=O)[C@@H](C)CC [SEQ ID NO: 6, H2N-Y-Aib-E-G-T-F-I-S-D-I-S-I-Aib-K[{N-MeGly}3-gGlu-C18OH]-D-R-I-H-Q-Aib-E-F-I-E-W-I-L-A-Q-G-P-S-S-G-A-P-P-P-S-NH2] (H-Y[Aib]EGTFISDLSI[Aib]K([Sar-Sar-Sar-γGlu-C18 diacid])DRIHQ[Aib]EFIEWLLAQGPSSGAPPPS-NH2) | no | >45 | 86 ± 2 | 100 ± 0 | 1.92 ± 0.03 | 83 ± 1 | 100 ± 0 | 1.94 ± 0.03 |
